# From patent US20070134261A1, “Effectors of innate immunity” (priority 2001, published 2007)
# Values joined by “and” are separate entries in the source; they are usually repeats but may differ in a detail not shown here. Identical values can stand only once.
# Tested on: human A549 epithelial cells
# Test: Resgen Human cDNA arrays (PRHU03-S3) of A549 cells treated with peptide (Tables 21-26)
# Conditions: 50 μg/ml, 4 h
structure (smiles),measurement,setting,value
CC[C@H](C)[C@H](N)C(=O)N[C@@H](CC(C)C)C(=O)N1CCC[C@H]1C(=O)N[C@@H](Cc1c[nH]c2ccccc12)C(=O)N[C@@H](CCCCN)C(=O)N[C@@H](Cc1c[nH]c2ccccc12)C(=O)N1CCC[C@H]1C(=O)N[C@@H](Cc1c[nH]c2ccccc12)C(=O)N[C@@H](Cc1c[nH]c2ccccc12)C(=O)N1CCC[C@H]1C(=O)N[C@@H](Cc1c[nH]c2ccccc12)C(=O)N[C@@H](CCCNC(=N)N)C(=O)N[C@@H](CCCNC(=N)N)C(N)=O [SEQ ID NO: 2],"Ratio Peptide:Unstimulated, small inducible cytokine subfamily A (Cys—Cys), member 20",AI285199,0.19
same,"Ratio Peptide:Unstimulated, TLR 1",AI339155,0.35
same,"Ratio Peptide:Unstimulated, disintegrin-like and metalloprotease with thrombospondin type 1 motif, 5",AI375048,0.39
same,"Ratio Peptide:Unstimulated, killer cell lectin-like receptor subfamily G, member 1",AI433079,2.3
same,"Ratio Peptide:Unstimulated, apoptosis antagonizing transcription factor",AI439571,0.28
same,"Ratio Peptide:Unstimulated, T-cell receptor interacting molecule",AI453185,0.41
same,"Ratio Peptide:Unstimulated, TGFB inducible early growth response 2","AI473938, listed as ID 2",2.4 and 2.38
same,"Ratio Peptide:Unstimulated, MAP kinase kinase kinase 1",AI538525,0.61
same,"Ratio Peptide:Unstimulated, protocadherin 12",AI652584,14.8
same,"Ratio Peptide:Unstimulated, protein tyrosine phosphatase, non-receptor type 18",AI668897,3.2
same,"Ratio Peptide:Unstimulated, Fc fragment of IgE, high affinity I, receptor for; alpha polypeptide",AI676097,0.43
same,"Ratio Peptide:Unstimulated, G protein-coupled receptor 4",AI719098,3.7
same,"Ratio Peptide:Unstimulated, peroxisome proliferative activated receptor, alpha",AI739498,0.38
same,"Ratio Peptide:Unstimulated, cadherin 12, type 2 (N-cadherin 2)",AI740827,13
same,"Ratio Peptide:Unstimulated, complement component C1q receptor",AI761788,0.46
same,"Ratio Peptide:Unstimulated, small inducible cytokine subfamily B (Cys-X-Cys), member 6 (granulocyte chemotactic protein 2)",AI889554,0.11
same,"Ratio Peptide:Unstimulated, small inducible cytokine subfamily A (Cys—Cys), member 21",AI922341,3.9
same,"Ratio Peptide:Unstimulated, protein tyrosine phosphatase, receptor type, H",AI924306,0.11
same,"Ratio Peptide:Unstimulated, tyrosine kinase, non-receptor, 1",AI936324,7.8
same,"Ratio Peptide:Unstimulated, MAP kinase 12",AI936909,2.1
same,"Ratio Peptide:Unstimulated, G protein-coupled receptor 17",AI953187,0.32
same,"Ratio Peptide:Unstimulated, apoptosis inhibitor 5",AI972925,2.8
same,"Ratio Peptide:Unstimulated, IL-17 R",AW029299,2.1
same,"Ratio Peptide:Unstimulated, MAP kinase kinase kinase 6",AW084649,0.37
same,Ratio Peptide:Unstimulated,C-type lectin-like receptor-2 (H70491),2.09
same,Ratio Peptide:Unstimulated,CCR6 (N57964),4.51
same,Ratio Peptide:Unstimulated,CD31 (PECAM) (R22412),2.71
same,"Ratio Peptide:Unstimulated, selectin L (lymphocyte adhesion molecule 1)",H00662,0.03
same,"Ratio Peptide:Unstimulated, MAP kinase kinase kinase 10",H01340,1.23
same,"Ratio Peptide:Unstimulated, protein tyrosine phosphatase, non-receptor type 21",H03504,0.94
same,"Ratio Peptide:Unstimulated, MAP kinase kinase 6","H07920, listed as ID 2",18 and 17.83
same,"Ratio Peptide:Unstimulated, disintegrin and metalloproteinase domain 23",H11006,1.9
same,"Ratio Peptide:Unstimulated, vascular cell adhesion molecule 1",H16591,0.20
same,"Ratio Peptide:Unstimulated, leukocyte immunoglobulin-like receptor, subfamily B",H54023,0.35
same,"Ratio Peptide:Unstimulated, disintegrin and metalloproteinase domain 9",H59231,1.1
same,"Ratio Peptide:Unstimulated, TGF beta receptor III",H62473,0.91
same,"Ratio Peptide:Unstimulated, regulator of G-protein signaling 13",H70047,0.54
same,"Ratio Peptide:Unstimulated, C-type lectin-like receptor-2",H70491,2.1
same,"Ratio Peptide:Unstimulated, vasoactive intestinal peptide receptor 1",H73241,0.43
same,"Ratio Peptide:Unstimulated, protein tyrosine phosphatase, receptor type, C",H74265,0.44
same,"Ratio Peptide:Unstimulated, protein tyrosine phosphatase, receptor type, A",H82419,4.0
same,"Ratio Peptide:Unstimulated, G protein-coupled receptor 75",H84878,5.2
same,"Ratio Peptide:Unstimulated, cadherin 1, type 1, E-cadherin epithelial",H97778,8.1
same,"Ratio Peptide:Unstimulated, TNF R superfamily, member 5 (CD40LR)","H98636, listed as ID 2",3.0 and 2.98
same,Ratio Peptide:Unstimulated,IL-11 Rα (AA454657),2.39
same,Ratio Peptide:Unstimulated,IL-17 R (AW029299),2.05
same,Ratio Peptide:Unstimulated,MAP kinase 9 (AA157286),0.57
same,"Ratio Peptide:Unstimulated, TLR 7",N30597,0.13
same,"Ratio Peptide:Unstimulated, CD36",N39161,8.2
same,"Ratio Peptide:Unstimulated, TLR 5",N41021,0.12
same,"Ratio Peptide:Unstimulated, protein tyrosine phosphatase, receptor type, f polypeptide (PTPRF), interacting protein (liprin), α1",N49751,0.43
same,"Ratio Peptide:Unstimulated, IL-2 receptor, gamma (severe combined immunodeficiency)",N54821,0.30
same,"Ratio Peptide:Unstimulated, adenosine A2a R",N57553,3.1
same,"Ratio Peptide:Unstimulated, CCR6",N57964,4.5
same,"Ratio Peptide:Unstimulated, G protein-coupled receptor 55",N58443,19
same,"Ratio Peptide:Unstimulated, G protein-coupled receptor 85",N62306,6.8
same,"Ratio Peptide:Unstimulated, leukocyte immunoglobulin-like receptor, subfamily A",N63398,0.44
same,"Ratio Peptide:Unstimulated, receptor tyrosine kinase-like orphan receptor 2",N94921,7.3
same,"Ratio Peptide:Unstimulated, CD31",R22412,2.7
same,"Ratio Peptide:Unstimulated, IK cytokine, down-regulator of HLA II","R39227, listed as ID 2",3.1 and 3.11
same,"Ratio Peptide:Unstimulated, cell adhesion molecule",R40400,4.0
same,"Ratio Peptide:Unstimulated, cadherin 13, H-cadherin (heart)",R41787,0.37
same,"Ratio Peptide:Unstimulated, diphtheria toxin receptor (heparin-binding epidermal growth factor-like growth factor)",R45640,0.49
same,"Ratio Peptide:Unstimulated, protein tyrosine phosphatase, receptor type, T",R52794,1.2
same,"Ratio Peptide:Unstimulated, PDGF R beta polypeptide",R56211,2.5
same,"Ratio Peptide:Unstimulated, interleukin enhancer binding factor 1",R56553,2.7
same,"Ratio Peptide:Unstimulated, Fc fragment of IgG, low affinity IIb, receptor for (CD32)",R68106,0.27
same,"Ratio Peptide:Unstimulated, MAP kinase kinase kinase 11",R80779,0.65
same,"Ratio Peptide:Unstimulated, protocadherin gamma subfamily C, 3",R89615,3.0
same,"Ratio Peptide:Unstimulated, G protein-coupled receptor",R91916,1.84
same,"Ratio Peptide:Unstimulated, TNF receptor-associated factor 2",T55353,1.22
same,"Ratio Peptide:Unstimulated, TLR 2",T57791,0.52
same,"Ratio Peptide:Unstimulated, caspase 1, apoptosis-related cysteine protease (interleukin 1, beta, convertase)",T95052,0.44
same,"Ratio Peptide:Unstimulated, BMP R type IA",W15390,1.9
same,"Ratio Peptide:Unstimulated, caspase 6, apoptosis-related cysteine protease",W45688,0.7
same,"Ratio Peptide:Unstimulated, MAP kinase kinase kinase 8",W56266,1.52
same,"Ratio Peptide:Unstimulated, integrin, beta 8",W56754,0.10
same,"Ratio Peptide:Unstimulated, MAP kinase kinase kinase 14",W61116,0.34
same,"Ratio Peptide:Unstimulated, integrin, beta 1",W67174,2.1
same,"Ratio Peptide:Unstimulated, MAP kinase-activated protein kinase 3","W68281, listed as ID 2",2.1 and 2.13
same,"Ratio Peptide:Unstimulated, MAP kinase kinase 5",W69649,3.0
same,"Ratio Peptide:Unstimulated, TNF receptor superfamily, member 12",W71984,0.59
same,"Ratio Peptide:Unstimulated, killer cell lectin-like receptor subfamily C, member 3",W93370,3.2
same,"Ratio Peptide:Unstimulated, Mouse Mammary Turmor Virus Receptor homolog",W93891,6.9
same,Ratio Peptide:Unstimulated,"integrin, alpha 2 (CD49B) (AA463257)",0.89
same,Ratio Peptide:Unstimulated,"integrin, alpha 3 (antigen CD49C) (AA424695)",0.79
same,Ratio Peptide:Unstimulated,"integrin, alpha E (AA425451)",179.33
same,Ratio Peptide:Unstimulated,"integrin, beta 4 (AA485668)",0.79
same,Ratio Peptide:Unstimulated,"small inducible cytokine subfamily A, member 21 (AI922341)",3.88
